Assay results: US20170226139A1, “CRYSTALLINE SALTS OF (Z)-O-OCTADEC-9-EN-1-YL O,O-DIHYDROGEN PHOSPHOROTHIOATE” (priority 2013, published 2017)
pEC50, pIC50: −log10 of the molar value. Entries after “also recorded” stand apart in the source; their conditions may differ. Like-named read-outs stand apart in the source and are kept apart here.

What was measured:
[1] = biological target: T1, Human LPA3 (Homo sapiens, UniProt Q9UBY5); experiment: Calcium-mobilization assay (FURA-2), human LPA3 transfected cells; assay type: cell-based; conditions: for EC50: EC50 [nM], mean
T1 construct: expressed in transfected cells; host or cells: mouse embryonic fibroblasts (MEF) or rat hepatoma RH7777
T1 sequence (Q9UBY5 1-353): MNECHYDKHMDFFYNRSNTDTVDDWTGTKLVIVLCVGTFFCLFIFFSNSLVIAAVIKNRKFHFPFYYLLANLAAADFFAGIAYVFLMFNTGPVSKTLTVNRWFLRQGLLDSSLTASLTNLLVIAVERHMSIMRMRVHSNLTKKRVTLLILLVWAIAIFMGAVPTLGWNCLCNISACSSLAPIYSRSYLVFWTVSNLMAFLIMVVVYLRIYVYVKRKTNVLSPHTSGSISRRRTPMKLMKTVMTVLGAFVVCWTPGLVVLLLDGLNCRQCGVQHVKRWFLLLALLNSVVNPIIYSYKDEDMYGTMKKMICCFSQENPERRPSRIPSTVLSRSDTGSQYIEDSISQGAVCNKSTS
Description: (§1) We investigated structure-activity relationships across species, LPAR subtypes and between Rx100 and two known process impurities encountered in manufacture: Rx103 (‘E’ isomer) and Rx200 (oleyl phosphate and impurity, which can be an Rx100 degradant along with oleyl alcohol). Rx100, Rx103, Rx200 and native LPA were investigated at different human LPAR subtypes. In addition, the activity of these compounds was evaluated at LPA2 receptors from the rhesus, rat and mouse species. Human LPA1/2/3 subtypes were transfected into mouse embryonic fibroblasts (MEF) or rat hepatoma cells (RH7777)—both of which are normally non-responsive or null to LPA. Human LPA4 was transfected into Chinese hamster ovary (CHO) cells and LPA5 into the B103 neuroblastoma cell line. […] The B103 rat neuroblastoma cell line is endogenously nonresponsive to LPA but expresses heterologous LPA5 receptors well. […] LPAR activation elicits a G-protein-mediated transient rise in intracellular calcium level that is proportional to the concentration of LPA applied. The intracellular calcium level was quantified by the calcium-selective fluorescent indicator FURA-2 (e.g., increased intracellular calcium surge=increased fluorescence).

[2] = biological target: T2, cloned hERG Potassium Channels expressed in human embryonic kidney cells (Homo sapiens, UniProt Q12809); experiment: hERG assay; assay type: cell-based
T2 construct: expressed in transfected cells; host or cells: human embryonic kidney cells
T2 sequence (Q12809 whole entry): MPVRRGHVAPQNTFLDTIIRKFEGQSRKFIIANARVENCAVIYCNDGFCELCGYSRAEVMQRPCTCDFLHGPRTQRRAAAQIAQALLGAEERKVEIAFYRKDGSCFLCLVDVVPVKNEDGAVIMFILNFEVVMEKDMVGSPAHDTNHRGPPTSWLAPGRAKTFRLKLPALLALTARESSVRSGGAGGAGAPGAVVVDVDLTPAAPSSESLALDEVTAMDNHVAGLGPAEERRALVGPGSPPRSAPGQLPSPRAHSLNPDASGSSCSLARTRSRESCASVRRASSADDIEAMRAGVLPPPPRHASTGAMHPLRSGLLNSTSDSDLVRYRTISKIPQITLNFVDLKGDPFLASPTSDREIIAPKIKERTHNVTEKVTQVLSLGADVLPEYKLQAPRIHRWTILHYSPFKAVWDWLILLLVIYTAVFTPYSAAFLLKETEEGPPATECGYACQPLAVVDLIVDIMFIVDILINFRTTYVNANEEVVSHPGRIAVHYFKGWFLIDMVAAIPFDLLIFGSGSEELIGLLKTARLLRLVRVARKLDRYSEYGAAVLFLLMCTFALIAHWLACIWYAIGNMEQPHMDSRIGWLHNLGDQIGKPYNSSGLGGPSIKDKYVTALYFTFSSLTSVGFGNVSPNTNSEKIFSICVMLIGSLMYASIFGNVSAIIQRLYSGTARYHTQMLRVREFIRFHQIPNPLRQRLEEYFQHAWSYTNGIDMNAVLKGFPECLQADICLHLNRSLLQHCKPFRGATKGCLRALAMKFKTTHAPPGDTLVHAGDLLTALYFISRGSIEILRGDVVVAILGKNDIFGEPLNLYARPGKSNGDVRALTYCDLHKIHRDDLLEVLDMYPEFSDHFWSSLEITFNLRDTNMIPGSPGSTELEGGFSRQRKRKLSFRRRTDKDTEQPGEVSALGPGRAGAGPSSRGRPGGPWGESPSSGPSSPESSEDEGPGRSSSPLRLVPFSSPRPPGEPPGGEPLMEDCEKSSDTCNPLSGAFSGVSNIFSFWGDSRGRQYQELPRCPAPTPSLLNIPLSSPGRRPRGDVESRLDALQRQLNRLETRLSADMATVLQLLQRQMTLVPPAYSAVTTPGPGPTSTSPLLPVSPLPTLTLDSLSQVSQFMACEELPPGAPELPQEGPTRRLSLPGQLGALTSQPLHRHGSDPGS

[3] = tested on: Control CHO; experiment: Calcium-mobilization assay, untransfected Control CHO cells; assay type: cell-based, Chinese hamster; conditions: Cricetulus griseus, CHO
Description: as §1

[4] = tested on: Cultured human peripheral lymphocytes cells; assay type: cell-based; conditions: for Aberrant Cells Mean % −g: excluding gaps only; for Aberrant Cells Mean % +g: plus cells with gaps only
Description: Cultured human peripheral lymphocytes cells were incubated in vitro with Rx100.Lysine for 3 hours with and without S9 mix and for 24 hours without S9 mix. For Rx100.Lysine, concentrations ranging from 3.39 to 500 μg/mL were examined in both treatment conditions. Adjusting for purity, the concentration ranges were 3.06 to 452 μg/mL. […] This increase was just above the historical vehicle control range (0 to 2.0%) for 3 hour treatment without metabolic activation. Thus the response observed is a weak positive and of questionable biological significance cytotoxicity was present just below the acceptable limit of 50±5% for this assay.
Thus, Rx100.Lysine was considered negative for inducing chromosome aberrations, polyploidy and endoreduplication, in cultured human peripheral blood lymphocytes following a 3 hour treatment with and a 24 treatment without metabolic activation.

[5] = tested on: bone marrow cells (micronucleated PCEs); experiment: In vivo rat bone marrow micronucleus assay; parameters: species or system Sprague-Dawley rats
Description: A GLP-compliant rat micronucleus study was performed using male Sprague-Dawley rats (n=5/group) administered single subcutaneous doses of Rx100.lysine at 0 (0.5% sterile water for injection with 10 mM L-histidine), 125, 250, and […] (doses corrected for purity were 113, 225 and 452 mg/kg). One additional group received the positive control material (cyclophosphamide). Five animals per group were sacrificed 24 hours postdose; five animals from the vehicle and high dose group were sacrificed 48 hours postdose. Following sacrifice, bone marrow cells were collected from the femur. 2000 PCEs per animal were analyzed for the frequency of micronuclei. […] The materials were also shown to be homogenous (relative standard deviation [RSD] of 0.7 to 0.9%). […] Thus, Rx100.Lysine was considered to be negative in the micronucleus assay.

[6] = tested on: male telemetered cynomolgus monkeys; experiment: Cardiovascular safety pharmacology in telemetered monkeys; assay type: in vivo; conditions: SC 0.1, 0.5 and 2.0 mg/kg as the free acid
Description: Four male telemetered cynomolgus monkeys were selected, and assigned via a Latin Square design to receive four doses of Rx100.lysine or vehicle via subcutaneous injection at doses of 0 (10 mM histidine in sterile water for injection, USP), 0.1, 0.5 and 2.0 mg/kg as the free acid. Parameters evaluated include clinical observations, body temperature, arterial pressure and ECG evaluations (PR, QT, QRS durations). QTc values were calculated based on data collected for each animal.

[7] = 3-hour treatment with metabolic activation, 84.0 μg/mL
[8] = 3-hour treatment with metabolic activation, 120 μg/mL
[9] = 3-hour treatment with metabolic activation, 172 μg/mL
[10] = 3-hour treatment without metabolic activation, 120 μg/mL
[11] = 3-hour treatment without metabolic activation, 245 μg/mL
[12] = 3-hour treatment without metabolic activation, 350 μg/mL
[13] = 24-hour treatment without metabolic activation, 41.2 μg/mL
[14] = 24-hour treatment without metabolic activation, 84.0 μg/mL
[15] = 24-hour treatment without metabolic activation, 120 μg/mL
[16] = 125 mg/kg single subcutaneous dose, harvest 24 hour
[17] = 250 mg/kg single subcutaneous dose, harvest 24 hour

## CCCCCCCC/C=C\CCCCCCCCOP(O)(O)=S [Rx100, (Z)—O-octadec-9-en-1-yl O,O-dihydrogen phosphorothioate]
[1]; LPA3 DKO MEF, human
  EC50: 205 nM
[1]; LPA3 RH7777, human
  EC50: 113 nM
[1]; RH7777, read-out: Emax (% of LPA)
  Emax: 71%
[1]; read-out: Emax (% of LPA)
  Emax: 82%
[2]
  pIC50: ~3.22
  hERG IC50 relative to anticipated therapeutic concentrations: 100 fold
[3]
  pEC50: < 5.30
[3]; read-out: Emax (% of LPA)
  Emax: 20%

## CCCCCCCC/C=C\CCCCCCCCOP(O)(O)=S [Rx100.L-Lysine, (Z)—O-octadec-9-en-1-yl O,O-dihydrogen phosphorothioate]
[4]; [7]
  Cytotoxicity (% of Control): 77 % of Control
  Endoreduplicate Mean %: 0.0%
  Polyploidy Mean %: 0.0%
  Aberrant Cells Mean % −g: 0.0%
  Aberrant Cells Mean % +g: 1.5%
[4]; [8]
  Cytotoxicity (% of Control): 65 % of Control
  Endoreduplicate Mean %: 0.0%
  Polyploidy Mean %: 0.0%
  Aberrant Cells Mean % −g: 0.5%
  Aberrant Cells Mean % +g: 2.5%
[4]; [9]
  Cytotoxicity (% of Control): 68 % of Control
  Endoreduplicate Mean %: 0.0%
  Polyploidy Mean %: 0.0%
  Aberrant Cells Mean % −g: 0.5%
  Aberrant Cells Mean % +g: 3.0%
[4]; [10]
  Endoreduplicate Mean %: 0.0%
  Polyploidy Mean %: 0.5%
  Aberrant Cells Mean % −g: 0.5%
  Aberrant Cells Mean % +g: 1.0%
[4]; [11]
  Endoreduplicate Mean %: 0.0%
  Polyploidy Mean %: 1.5%
  Aberrant Cells Mean % −g: 3.0%
  Aberrant Cells Mean % +g: 6.0%
[4]; [12]
  Endoreduplicate Mean %: 0.0%
  Polyploidy Mean %: 3.0%
  Aberrant Cells Mean % −g: 6.0%
  Aberrant Cells Mean % +g: 8.5%
[4]; [13]
  Endoreduplicate Mean %: 0.0%
  Polyploidy Mean %: 0.0%
  Aberrant Cells Mean % −g: 0.5%
  Aberrant Cells Mean % +g: 3.0%
[4]; [14]
  Endoreduplicate Mean %: 0.0%
  Polyploidy Mean %: 0.0%
  Aberrant Cells Mean % −g: 2.0%
  Aberrant Cells Mean % +g: 5.5%
[4]; [15]
  Endoreduplicate Mean %: 0.0%
  Polyploidy Mean %: 1.0%
  Aberrant Cells Mean % −g: 0.5%
  Aberrant Cells Mean % +g: 4.5%
[4]; 3 hour treatment with S9 and 24 hour treatment without S9
  Genotoxic Effects: Genotoxic Effects: Negative for inducing chromosome aberrations, polyploidy and endoreduplication following a 3 hour treatment
[4]; 3 hours with or 24 hours without metabolic activation, listed as Rx100.Lysine
  chromosome aberrations, polyploidy and endoreduplication: No increase in structural or numerical aberrations, polyploidy or endoreduplication; also recorded: negative
[4]; 3 hours without metabolic activation, increase only at 316 μg/mL, listed as Rx100.Lysine
  cells with chromosome aberrations: small but statistically significant increase; also recorded: weakly positive
[4]; highest concentration tested, 3-hour exposure
  cytotoxicity: Cytotoxicity was observed
[4]; study summary, primary human lymphocytes
  Cytotoxic Effect: Cytotoxic Effect: None
[5]; [16]
  Mean % MNPC (±SD) Male: 0.04%
  Mean Ratio PCE:NCE (±SD) Male: 0.55
[5]; [17]
  Mean % MNPC (±SD) Male: 0.07%
  Mean Ratio PCE:NCE (±SD) Male: 0.59
[5]; 500 mg/kg single subcutaneous dose, harvest 48 hour
  Mean Ratio PCE:NCE (±SD) Male: 0.36
[5]; all doses of the test article, statistically significant decreases in the PCE:NCE ratios
  Toxic/Cytotoxic Effects: Toxic/Cytotoxic Effects: Rx100.Lysine was cytotoxic to the bone marrow (i.e., statistically significant decreases in the PCE:NCE ratios)
[5]; any dose, 24 hour point, single SC dose
  micronucleated PCEs: no increase in micronucleated PCEs
[5]; high dose animals at 48 hours postdose
  clinical signs: hunched posture, hypoactivity and irregular respiration
[5]; high dose animals, 48-hour time point, not considered biologically relevant
  micronucleated PCEs: statistically significant increase
[5]; rat, in vivo
  micronucleus assay, overall result: negative
[6]
  ECG intervals: no meaningful changes in PR, QRS, QT and QTc
  heart rate: slight dose-dependent increase in heart rate
